Results from patent US20240376076A1, “INHIBITORS TARGETING UBIQUITIN SPECIFIC PROTEASE 7 (USP7)” (Dana-Farber Cancer Institute, Inc., priority 2021, published 2024).

Test system: not listed separately
Experiment: mouse liver microsomal stability (Microsome Assay Protocol)
Assay type: in vitro ADME
Conditions: pH 7.4; mouse liver microsomes, NADPH, 37° C.; read-out: MLM t1/2, min
Protocol: (§1) ND refers to not disclosed.
• 1. Buffer A: 1.0 L of 0.1 M monobasic Potassium Phosphate buffer containing 1.0 mM EDTA Buffer B: 1.0 L of 0.1 M Dibasic Potassium Phosphate buffer containing 1.0 mM EDTA • Buffer C: 0.1 M Potassium Phosphate buffer, 1.0 mM EDTA, pH 7.4 by titrating 700 mL of buffer B with buffer A while monitoring with a pH meter. • 2. Reference compound (Ketanserin) and test compounds spiking solution: • 500 μM spiking solution: added 10 μL of 10 mM DMSO stock solution into 190 μL ACN. • 1.5 μM spiking solution in microsomes (0.75 mg/mL): added 1.5 μL of 500 μM spiking solution and 18.75 μL of 20 mg/mL liver microsomes into 479.75 μL of Buffer C on ice. • 3. Prepared NADPH stock solution (6 mM) by dissolving NADPH into buffer C. Dispensed 30 μL of 1.5 μM spiking solution containing 0.75 mg/mL microsomes solution to the assay plates designated for different time points (0-, 5-, 15-, 30-, 45-min) on ice. For 0-min, added 135 μL of ACN containing IS to the wells of 0-min plate and then added 15 μL of NADPH stock solution (6 mM). Pre-incubated all other plates at 37° C. for 5 minutes. Added 15 μL of NADPH stock solution (6 mM) to the plates to start the reaction and timing. At 5-min, 15-min, 30-min, and 45-min, added 135 μL of ACN containing IS to the wells of corresponding plates, respectively, to stop the reaction. After quenching, shook the plates at the vibrator (IKA, MTS 2/4) for 10 min (600 rpm/min) and then centrifuged at 5594 g for 15 min (Thermo Multifuge×3R). Transferred 50 μL of the supernatant from each well into a 96-well sample plate containing 50 μL of ultra pure water (Millipore, ZMQS50F01) for LC/MS analysis.

Row | half-life at 1 µM [min] | SMILES
1 | 7.27 | CC(c1ccccc1)C(CCCNC(=O)c1ccc2c(Cl)cc(C3CC3)nc2c1)C(=O)N1CCC(O)(Cn2cnc3cc(OCCCN(C)C)ccc3c2=O)CC1 (stereo not drawn)
2 | 46.5 | CN(C)CCCOc1ccc2c(=O)n(CC3(O)CCN(C(=O)C(Cc4ccccc4)N(C)CCNC(=O)c4ccc5c(Cl)c(C(=O)NC6CC6)cnc5c4)CC3)cnc2c1 (stereo not drawn)
3 | 6.51 | NC(=O)c1cnc2cc(C(=O)NCCCC(Cn3ccc(F)n3)C(=O)N3CCC(O)(Cn4cnc5ccccc5c4=O)CC3)ccc2c1Cl (stereo not drawn)
4 | 4.61 | O=C(NCCCC(Cn1ccc(F)n1)C(=O)N1CCC(O)(Cn2cnc3ccccc3c2=O)CC1)c1ccc2c(Cl)c(C(=O)NC3CC3)cnc2c1 (stereo not drawn)

Target: T1, USP7, Active human recombinant protein (Homo sapiens, UniProt Q93009)
T1 construct: purchased CP Lot; 20200225001
Experiment: USP7 assay (Ubiquitin-Rhodamine 110 enzymatic assay)
Assay type: biochemical
Conditions: read-out: IC50
Protocol: Enzymatic Assays with Exemplary USP7 Irreversible Inhibitors
as §1
USP7, Active human recombinant protein (CP, Lot. 20200225001), Ubiquitin-Rhodamine 110 (Rh110) (BostonBiochem, Cat. No. U-555), DMSO (Sigma, Cat. N34869), DTT (Sangon Biotech, Cat. No. A620058-0005), […] Tris pH 8.0 (Sigma, Cat. No. T2694-1L), Tween-20 (Sigma, Cat. No. P2287-100ML), EDTA (Invitrogen, Cat. No. 15575020, BSA (Sigma, Cat. No. B2064-100G), 384-well assay plate (Corning, Cat. No. 3573), Echo Qualified 384-Well Polypropylene Microplate 2.0, Clear, Flat Bottom (LABCYTE, Cat. No. 001-14555).
Dilute the compounds to 400× of the final desired highest inhibitor concentration in reaction by 100% DMSO. For all compounds, transfer the compounds to one well in a 384-well Echo plate and serially dilute the compound by 3-fold dilution of 100% DMSO in the next well and so forth for a total of 10 concentrations by Precision. Add 30 μL of 100% DMSO to two empty wells for no compound control and no enzyme control in the same 384-well Echo plate. Make the plate as a source plate.
For USP7 assay, transfer 50 nL of each well from the source plate to a 384-well assay plate (OptiPlate TM-384 F black assay plates) by Echo 550 Liquid Handler.
Added appropriate amount of USP7 in 1× assay Buffer to prepare 2× enzyme solution (USP7 final concentration: 0.05 nM). Added appropriate amount of Ubiquitin-Rhodamine 110 in 1× assay Buffer to prepare 2× substrate solution (Ubiquitin-Rhodamine 110 final concentration: 190 nM). Added 10 μL of 2× enzyme solution to each reaction well of the 384-well assay plate, except for control wells without enzyme (add 10 μL of 1× Assay Buffer instead as for low control). […] Transferred 2× substrate solution to the assay plate. Added 10 μL of 2× substrate solution to each well of the 384-well assay plate to start reaction. Centrifuged at 1000 rpm for 1 min. Read the plate kinetically on SpectraMax Paradigm for 20 min with excitation at 485 nm and emission at 535 nm. Copied raw data (slope) from Reader to obtain inhibition values in Excel using equation (1): […]
Max signal was obtained from the action of Enzyme and Substrate. Min signal was obtained from the Substrate only. To fit the data in XLFit excel add-in version 5.4.0.8 to obtain IC50 values used equation (2): […]
Y is % inhibition and X is compound concentration.

T1 sequence (Q93009 whole entry): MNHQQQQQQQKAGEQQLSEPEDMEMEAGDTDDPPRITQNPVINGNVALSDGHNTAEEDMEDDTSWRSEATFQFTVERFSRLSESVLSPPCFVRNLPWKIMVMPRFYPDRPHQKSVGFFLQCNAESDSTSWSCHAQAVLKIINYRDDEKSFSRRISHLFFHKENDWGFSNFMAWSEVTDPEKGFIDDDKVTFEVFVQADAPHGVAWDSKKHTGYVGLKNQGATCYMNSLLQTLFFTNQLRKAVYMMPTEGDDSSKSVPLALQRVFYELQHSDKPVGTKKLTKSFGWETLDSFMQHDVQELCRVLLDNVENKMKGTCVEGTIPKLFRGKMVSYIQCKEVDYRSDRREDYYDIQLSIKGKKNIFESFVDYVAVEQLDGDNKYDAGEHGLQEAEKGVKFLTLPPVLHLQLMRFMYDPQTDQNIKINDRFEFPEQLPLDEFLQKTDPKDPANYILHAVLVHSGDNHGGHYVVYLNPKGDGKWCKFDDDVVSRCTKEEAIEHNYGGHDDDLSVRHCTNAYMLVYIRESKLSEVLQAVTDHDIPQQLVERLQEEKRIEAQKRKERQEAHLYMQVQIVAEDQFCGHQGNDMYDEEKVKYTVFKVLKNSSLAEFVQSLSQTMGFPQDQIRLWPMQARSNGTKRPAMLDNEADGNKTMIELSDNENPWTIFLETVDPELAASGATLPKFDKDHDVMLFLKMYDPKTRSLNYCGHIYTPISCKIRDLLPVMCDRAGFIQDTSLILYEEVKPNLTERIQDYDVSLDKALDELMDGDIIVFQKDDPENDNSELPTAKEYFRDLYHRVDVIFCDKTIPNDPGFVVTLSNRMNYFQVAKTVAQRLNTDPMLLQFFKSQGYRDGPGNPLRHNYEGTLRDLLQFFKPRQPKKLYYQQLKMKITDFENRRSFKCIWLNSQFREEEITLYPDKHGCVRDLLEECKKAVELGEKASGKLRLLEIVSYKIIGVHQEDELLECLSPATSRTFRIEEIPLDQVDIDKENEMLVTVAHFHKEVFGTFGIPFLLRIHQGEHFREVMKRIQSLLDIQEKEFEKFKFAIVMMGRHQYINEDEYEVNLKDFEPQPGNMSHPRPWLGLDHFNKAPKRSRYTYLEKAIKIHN

Row | SMILES | IC50 [µM]
5 | NC(=O)c1cnc2cc(C(=O)NCCCC(Cn3ccc(F)n3)C(=O)N3CCC(O)(Cn4cnc5ccccc5c4=O)CC3)ccc2c1Cl (stereo not drawn) | 0.02 to 0.1
6 | CN(C)CCC(=O)Nc1ccc2c(=O)n(CC3(O)CCN(C(=O)[C@@]4(Cc5ccccc5)CCN(CCNC(=O)c5ccc6c(Cl)ccnc6c5)C4)CC3)cnc2c1 [Compound 57] | > 1
7 | CN(C)CCC(=O)Nc1ccc2c(=O)n(CC3(O)CCN(C(=O)[C@H]4CCN(CCNC(=O)c5ccc6c(Cl)ccnc6c5)C[C@@H]4c4ccccc4)CC3)cnc2c1 [Compound 74] | > 1
8 | CN(C)CCC(=O)Nc1ccc2c(=O)n(CC3(O)CCN(C(=O)[C@@H]4CN(CCNC(=O)c5ccc6c(Cl)ccnc6c5)C[C@H]4c4ccccc4)CC3)cnc2c1 [Compound 76] | 0.1 to 1
9 | C=CS(=O)(=O)Nc1ccccc1N1CCC(C(=O)N2CCC(O)(Cn3cnc4cc(NC(=O)CCN5CCN(C)CC5)ccc4c3=O)CC2)CC1 [Compound 92] | 0.02 to 0.1
10 | O=C(NCCN1CC[C@@H](C(=O)N2CCC(O)(Cn3cnc4c(-c5ccc(Br)cc5)nsc4c3=O)CC2)[C@H](c2ccccc2)C1)c1ccc2c(Cl)ccnc2c1 [Compound 98] | 0.1 to 1
11 | CC1(C)C2C(=O)N(CC3(O)CCN(C(=O)[C@@H]4CCN(CCNC(=O)c5ccc6c(Cl)ccnc6c5)C[C@H]4c4ccccc4)CC3)C(=O)C21 (stereo partly drawn) [Compound 99] | > 1
12 | O=C(CCN1CCNCC1)Nc1ccn2c(=O)c(CN3CCN(C(=O)[C@@H]4CCN(CCNC(=O)c5ccc6c(Cl)ccnc6c5)C[C@H]4c4ccccc4)CC3)cnc2c1 [Compound 100] | > 1
13 | O=C(CCN1CCNCC1)Nc1ccc2c(=O)n(CC3(O)CCN(C(=O)[C@@H]4CCN(CCNC(=O)c5ccc6c(Cl)ccnc6c5)C[C@H]4c4ccc(C(F)(F)F)cc4)CC3)cnc2c1 [Compound 101] | > 1
14 | C=CC(=O)Nc1ccc(Cl)cc1N1CCC(C(=O)N2CCC(O)(Cn3cnc4cc(NC(=O)CCN5CCN(C)CC5)ccc4c3=O)CC2)C(c2ccccc2)C1 (stereo not drawn) [Compound 103] | 0.1 to 1
15 | C=CC(=O)Nc1ccc(C(F)(F)F)cc1N1CCC(C(=O)N2CCC(O)(Cn3cnc4cc(NC(=O)CCN5CCN(C)CC5)ccc4c3=O)CC2)C(c2ccccc2)C1 (stereo not drawn) [Compound 104] | 0.1 to 1
16 | O=C(NCCN1CCC(C(=O)N2CCC(O)(Cn3cnc4cc(OCCN5CCNCC5)ccc4c3=O)CC2)C(c2ccccc2)C1)c1ccc2c(Cl)cc(C3CC3)nc2c1 (stereo not drawn) [Compound 107] | 0.02 to 0.1
17 | O=C(NCCN1CC[C@@H](C(=O)N2CCC(O)(Cn3cnc4cc(-c5nc(CN6CCNCC6)co5)ccc4c3=O)CC2)[C@H](c2ccccc2)C1)c1ccc2c(Cl)ccnc2c1 [Compound 144] | 0.02 to 0.1

Now from value to compound:

Row | IC50 [µM] | SMILES
18 | 0.02 to 0.1 | CC(c1ccccc1)C(CCCNC(=O)c1ccc2c(Cl)cc(C3CC3)nc2c1)C(=O)N1CCC(O)(Cn2cnc3cc(OCCCN(C)C)ccc3c2=O)CC1 (stereo not drawn)
19 | 0.02 to 0.1 | CN(C)CCCOc1ccc2c(=O)n(CC3(O)CCN(C(=O)C(Cc4ccccc4)N(C)CCNC(=O)c4ccc5c(Cl)c(C(=O)NC6CC6)cnc5c4)CC3)cnc2c1 (stereo not drawn)
20 | 0.02 to 0.1 | O=C(NCCCC(Cn1ccc(F)n1)C(=O)N1CCC(O)(Cn2cnc3ccccc3c2=O)CC1)c1ccc2c(Cl)c(C(=O)NC3CC3)cnc2c1 (stereo not drawn)
21 | 0.1 to 1 | CN(C)CCC(=O)Nc1ccc2c(=O)n(CC3(O)CCN(C(=O)c4cnn(CCNC(=O)c5ccc6c(Cl)ccnc6c5)c4Cc4ccccc4)CC3)cnc2c1 [Compound 53, N-(2-(5-benzyl-4-(4-((7-(3-(dimethylamino)propanamido)-4-oxoquinazolin-3(4H)-yl)methyl)-4-hydroxypiperidine-1-carbonyl)-1H-pyrazol-1-yl)ethyl)-4-chloroquinoline-7-carboxamide]
22 | > 1 | CN1CCN(CCC(=O)Nc2ccc3c(=O)n(CC4(O)CCN(C(=O)[C@H](CCCNC(=O)c5ccc6c(Cl)ccnc6c5)Cc5ccccc5)CC4)cnc3c2)CC1 [Compound 58, (R)—N-(4-benzyl-5-(4-hydroxy-4-((7-(3-(4-methylpiperazin-1-yl)propanamido)-4-oxoquinazolin-3(4H)-yl)methyl)piperidin-1-yl)-5-oxopentyl)-4-chloroquinoline-7-carboxamide]
23 | 0.1 to 1 | O=C(CCn1cccn1)Nc1ccc2c(=O)n(CC3(O)CCN(C(=O)C(CCCNC(=O)c4ccc5c(Cl)ccnc5c4)Cc4ccccc4)CC3)cnc2c1 (stereo not drawn) [Compound 64, N-(5-(4-((7-(3-(JH-pyrazol-1-yl)propanamido)-4-oxoquinazolin-3(4H)-yl)methyl)-4-hydroxypiperidin-1-yl)-4-benzyl-5-oxopentyl)-4-chloroquinoline-7-carboxamide]
24 | > 1 | COc1cc(Cl)c2ccc(C(=O)NCCCC(Cc3ccccc3)C(=O)N3CCC(O)(Cn4cnc5cc(NC(=O)CCN(C)C)ccc5c4=O)CC3)cc2n1 (stereo not drawn) [Compound 66]
25 | > 1 | COc1cc(Cl)nc2cc(C(=O)NCCCC(Cc3ccccc3)C(=O)N3CCC(O)(Cn4cnc5cc(NC(=O)CCN(C)C)ccc5c4=O)CC3)ccc12 (stereo not drawn) [Compound 67]
26 | > 1 | CN(C)CCC(=O)Nc1ccc2c(=O)n(CC3(O)CCN(C(=O)C(CCCNC(=O)c4ccc5c(Cl)nccc5c4)Cc4ccccc4)CC3)cnc2c1 (stereo not drawn) [Compound 68]
27 | 0.1 to 1 | CN(C)CCC(=O)Nc1ccc2c(=O)n(CC3(O)CCN(C(=O)C(CCCNC(=O)c4ccc5c(Cl)ccnc5c4)Cc4cccnc4)CC3)cnc2c1 (stereo not drawn) [Compound 82]
28 | > 1 | CN(C)CCC(=O)Nc1ccc2c(=O)n(CC3(O)CCN(C(=O)N(CCCNC(=O)c4ccc5c(Cl)ccnc5c4)Cc4ccccc4)CC3)cnc2c1 [Compound 83]
29 | > 1 | CN(C)CCC(=O)Nc1ccc2c(=O)n(CC3(O)CCN(C(=O)C(CCCNC(=O)c4ccc5c(Cl)c6c(nc5c4)CNCC6)Cc4ccccc4)CC3)cnc2c1 (stereo not drawn) [Compound 88]
30 | 0.02 to 0.1 | CN(C)CCC(=O)Nc1ccc2c(=O)n(CC3(O)CCN(C(=O)C(CCCNC(=O)c4ccc5c(Cl)c6c(nc5c4)CCOC6)Cc4ccccc4)CC3)cnc2c1 (stereo not drawn) [Compound 90]
31 | 0.1 to 1 | CN(C)CCOc1cc(F)c2c(=O)n(CC3(O)CCN(C(=O)[C@H](CCCNC(=O)c4ccc5c(Cl)cc(C6CC6)nc5c4)Cc4ccccc4)CC3)cnc2c1 [Compound 118]
32 | < 0.02 | CN(C)CCCOc1ccc2c(=O)n(CC3(O)CCN(C(=O)[C@H](CCCNC(=O)c4ccc5c(Cl)c(C(F)F)cnc5c4)Cc4ccccc4)CC3)cnc2c1 [Compound 130]
33 | 0.1 to 1 | CN(C)CCCOc1ccc2c(=O)n(CC3(O)CCN(C(=O)[C@H](CCCNC(=O)c4ccc5c(Cl)c(F)cnc5c4)Cc4ccccc4)CC3)cnc2c1 [Compound 131]
34 | 0.02 to 0.1 | O=C(NCCC[C@H](Cc1ccccc1)C(=O)N1CCC(O)(Cn2cnc3cc(-c4ncc(CN5CCNCC5)o4)ccc3c2=O)CC1)c1ccc2c(Cl)cc(C3CC3)nc2c1 [Compound 135]
35 | < 0.02 | CN(C)CCCNc1ccc2c(=O)n(CC3(O)CCN(C(=O)[C@H](CCCNC(=O)c4ccc5c(Cl)cc(C6CC6)nc5c4)Cc4ccccc4)CC3)cnc2c1 [Compound 136]
36 | 0.02 to 0.1 | COc1cc2c(=O)n(CC3(O)CCN(C(=O)[C@H](CCCNC(=O)c4ccc5c(Cl)cc(C6CC6)nc5c4)Cc4ccccc4)CC3)cnc2cc1OCCCN(C)C [Compound 138]
